{"source": "patent US11306117B2", "about": "“Whitening composition containing novel quercetin-based compound” (AMOREPACIFIC CORPORATION, priority 2017, dated 2022)", "key": {"[1]": {"target": "mushroom tyrosinase", "experiment": "Inhibition of tyrosinase activity", "type": "biochemical", "settings": "L-tyrosine, 37° C., 20 minutes, absorbance 490 nm", "description": "The effect of New Materials 31 and 32 on inhibiting tyrosinase activity was evaluated.\nSpecifically, tyrosinase and tyrosine derived from mushroom were obtained from Sigma Chemical. Together with 150 μl of 0.1 M phosphate buffer (pH 6.5), 8 μl of mushroom tyrosinase (2,100 unit/ml) and 0.05 M concentration of L-tyrosine, arbutin and New Materials 31 and 32 were treated at the concentrations of following Table 3, respectively. The tyrosinase activity was evaluated by performing the enzyme reaction at 37° C. for 20 minutes and then measuring absorbance at 490 nm using a microplate reader (Bio-Rad 3550, Richmond, Calif., U.S.A.)."}, "[2]": {"system": "healthy adult examinees", "experiment": "HRIPT (Human repeated insult patch tests), skin accumulated stimulus", "type": "in vivo", "set-up": "key to skin reactivity (ICDRG criteria): −: negative (no response); ±: doubtful or slight erythema, etc.; +: weak reaction (which is accompanied with no phlyctenule), erythema, papule; ++: severe reaction (which is accompanied with phylctenule), erythema, papule, phlyctenule; +++: strong reaction, bullae reaction", "settings": "for average reactivity: 9 patches, 15 examinees; for Number of examinees who exhibited ±, +, or ++ reactivity 1st: 1st patch; for Number of examinees who exhibited ±, +, or ++ reactivity 2nd: 2nd patch; for Number of examinees who exhibited ±, +, or ++ reactivity 3rd: 3rd patch; for Number of examinees who exhibited ±, +, or ++ reactivity 4th: 4th patch; for Number of examinees who exhibited ±, +, or ++ reactivity 5th: 5th patch; for Number of examinees who exhibited ±, +, or ++ reactivity 6th: 6th patch; for Number of examinees who exhibited ±, +, or ++ reactivity 7th: 7th patch; for Number of examinees who exhibited ±, +, or ++ reactivity 8th: 8th patch; for Number of examinees who exhibited ±, +, or ++ reactivity 9th: 9th patch", "description": "HRIPT (Human repeated insult patch tests) was conducted in order to identify skin accumulated stimulus of quercetin3-O-[3-O″-(E)-p-coumaroyl][β-D-glucopyranosyl-(1→3)-O-α-L-rhamnopyranosyl-(1→6)-O-β-D-glucopyranoside] and quercetin3-O-[3-O″-(E)-p-coumaroyl][α-L-rhamnopyranosyl-(1→6)-O-β-D-glucopyranoside]and to calculate the concentration range that can be used in skin.\nSpecifically, 15 healthy adult examinees were randomly selected, and test compositions in which the compounds were respectively comprised in an amount of 0.5 wt. %, 1 wt. %, and 3 wt. % (the compositions for skin, comprising an emulsifying agent, a stabilizer, purified water, etc. in addition to the compounds) were dropped in the amount of 20 μl per chamber (IQ chamber, Epitest Ltd, Finland), and patched on the right site of the upper back of the examinees, and then, after 24 hours, the patch was replaced with a new patch. A total of 9 patches were conducted, three times a week for total 3 weeks, in such manner, the skin reactions before and after patch were examined every time, and the skin reactions until 48 hours after removing the final patch were observed, and the average reactivity was observed.\nThe skin reaction was determined according to the criteria of International Contact Dermatitis Research Group (ICDRG). In the above table, “New Material 31” refers to quercetin3-O-[3-O″-(E)-p-coumaroyl][β-D-glucopyranosyl-(1→3)-O-α-L-rhamnopyranosyl-(1→6)-O-β-D-glucopyranoside], and “New Material 32” refers to quercetin3-O-[3-O″-(E)-p-coumaroyl][α-L-rhamnopyranosyl-(1→6)-O-β-D-glucopyranoside]."}}}
{"smiles": "C[C@@H]1O[C@@H](OC[C@H]2O[C@@H](Oc3c(-c4ccc(O)c(O)c4)oc4cc(O)cc(O)c4c3=O)[C@H](O)[C@@H](OC(=O)/C=C/c3ccc(O)cc3)[C@@H]2O)[C@H](O)[C@H](O[C@@H]2O[C@H](CO)[C@@H](O)[C@H](O)[C@H]2O)[C@H]1O", "note": "[New Material 31, quercetin3-O-[3-O″-(E)-p-coumaroyl][β-D-glucopyranosyl-(1→3)-O-α-L-rhamnopyranosyl-(1→6)-O-β-D-glucopyranoside]]", "values": [{"measurement": "IC50 inhibiting tyrosinase activity", "setting": "[1]", "value": 16, "unit": "ppm"}, {"measurement": "average reactivity", "setting": "[2]; 0.5 wt.% in test composition", "value": 0}, {"measurement": "skin reactivity (ICDRG criteria)", "setting": "[2]; 0.5 wt.%, 1 wt.% and 3 wt.%, 9 patches in 3 weeks", "value": "−"}, {"measurement": "Number of examinees who exhibited ±, +, or ++ reactivity 1st", "setting": "[2]; 0.5 wt.%, line 1 of 3 (±)", "value": 0, "unit": "number"}, {"measurement": "Number of examinees who exhibited ±, +, or ++ reactivity 1st", "setting": "[2]; 0.5 wt.%, line 2 of 3 (+)", "value": 0, "unit": "number"}, {"measurement": "Number of examinees who exhibited ±, +, or ++ reactivity 1st", "setting": "[2]; 0.5 wt.%, line 3 of 3 (++)", "value": 0, "unit": "number"}, {"measurement": "Number of examinees who exhibited ±, +, or ++ reactivity 2nd", "setting": "[2]; 0.5 wt.%, line 1 of 3 (±)", "value": 0, "unit": "number"}, {"measurement": "Number of examinees who exhibited ±, +, or ++ reactivity 2nd", "setting": "[2]; 0.5 wt.%, line 2 of 3 (+)", "value": 0, "unit": "number"}, {"measurement": "Number of examinees who exhibited ±, +, or ++ reactivity 2nd", "setting": "[2]; 0.5 wt.%, line 3 of 3 (++)", "value": 0, "unit": "number"}, {"measurement": "Number of examinees who exhibited ±, +, or ++ reactivity 3rd", "setting": "[2]; 0.5 wt.%, line 1 of 3 (±)", "value": 0, "unit": "number"}, {"measurement": "Number of examinees who exhibited ±, +, or ++ reactivity 3rd", "setting": "[2]; 0.5 wt.%, line 2 of 3 (+)", "value": 0, "unit": "number"}, {"measurement": "Number of examinees who exhibited ±, +, or ++ reactivity 3rd", "setting": "[2]; 0.5 wt.%, line 3 of 3 (++)", "value": 0, "unit": "number"}, {"measurement": "Number of examinees who exhibited ±, +, or ++ reactivity 4th", "setting": "[2]; 0.5 wt.%, line 1 of 3 (±)", "value": 0, "unit": "number"}, {"measurement": "Number of examinees who exhibited ±, +, or ++ reactivity 4th", "setting": "[2]; 0.5 wt.%, line 2 of 3 (+)", "value": 0, "unit": "number"}, {"measurement": "Number of examinees who exhibited ±, +, or ++ reactivity 4th", "setting": "[2]; 0.5 wt.%, line 3 of 3 (++)", "value": 0, "unit": "number"}, {"measurement": "Number of examinees who exhibited ±, +, or ++ reactivity 5th", "setting": "[2]; 0.5 wt.%, line 1 of 3 (±)", "value": 0, "unit": "number"}, {"measurement": "Number of examinees who exhibited ±, +, or ++ reactivity 5th", "setting": "[2]; 0.5 wt.%, line 2 of 3 (+)", "value": 0, "unit": "number"}, {"measurement": "Number of examinees who exhibited ±, +, or ++ reactivity 5th", "setting": "[2]; 0.5 wt.%, line 3 of 3 (++)", "value": 0, "unit": "number"}, {"measurement": "Number of examinees who exhibited ±, +, or ++ reactivity 6th", "setting": "[2]; 0.5 wt.%, line 1 of 3 (±)", "value": 0, "unit": "number"}, {"measurement": "Number of examinees who exhibited ±, +, or ++ reactivity 6th", "setting": "[2]; 0.5 wt.%, line 2 of 3 (+)", "value": 0, "unit": "number"}, {"measurement": "Number of examinees who exhibited ±, +, or ++ reactivity 6th", "setting": "[2]; 0.5 wt.%, line 3 of 3 (++)", "value": 0, "unit": "number"}, {"measurement": "Number of examinees who exhibited ±, +, or ++ reactivity 7th", "setting": "[2]; 0.5 wt.%, line 1 of 3 (±)", "value": 0, "unit": "number"}, {"measurement": "Number of examinees who exhibited ±, +, or ++ reactivity 7th", "setting": "[2]; 0.5 wt.%, line 2 of 3 (+)", "value": 0, "unit": "number"}, {"measurement": "Number of examinees who exhibited ±, +, or ++ reactivity 7th", "setting": "[2]; 0.5 wt.%, line 3 of 3 (++)", "value": 0, "unit": "number"}, {"measurement": "Number of examinees who exhibited ±, +, or ++ reactivity 8th", "setting": "[2]; 0.5 wt.%, line 1 of 3 (±)", "value": 0, "unit": "number"}, {"measurement": "Number of examinees who exhibited ±, +, or ++ reactivity 8th", "setting": "[2]; 0.5 wt.%, line 2 of 3 (+)", "value": 0, "unit": "number"}, {"measurement": "Number of examinees who exhibited ±, +, or ++ reactivity 8th", "setting": "[2]; 0.5 wt.%, line 3 of 3 (++)", "value": 0, "unit": "number"}, {"measurement": "Number of examinees who exhibited ±, +, or ++ reactivity 9th", "setting": "[2]; 0.5 wt.%, line 1 of 3 (±)", "value": 0, "unit": "number"}, {"measurement": "Number of examinees who exhibited ±, +, or ++ reactivity 9th", "setting": "[2]; 0.5 wt.%, line 2 of 3 (+)", "value": 0, "unit": "number"}, {"measurement": "Number of examinees who exhibited ±, +, or ++ reactivity 9th", "setting": "[2]; 0.5 wt.%, line 3 of 3 (++)", "value": 0, "unit": "number"}, {"measurement": "average reactivity", "setting": "[2]; 1 wt.% in test composition", "value": 0}, {"measurement": "Number of examinees who exhibited ±, +, or ++ reactivity 1st", "setting": "[2]; 1 wt.%, line 1 of 3 (±)", "value": 0, "unit": "number"}, {"measurement": "Number of examinees who exhibited ±, +, or ++ reactivity 1st", "setting": "[2]; 1 wt.%, line 2 of 3 (+)", "value": 0, "unit": "number"}, {"measurement": "Number of examinees who exhibited ±, +, or ++ reactivity 1st", "setting": "[2]; 1 wt.%, line 3 of 3 (++)", "value": 0, "unit": "number"}, {"measurement": "Number of examinees who exhibited ±, +, or ++ reactivity 2nd", "setting": "[2]; 1 wt.%, line 1 of 3 (±)", "value": 0, "unit": "number"}, {"measurement": "Number of examinees who exhibited ±, +, or ++ reactivity 2nd", "setting": "[2]; 1 wt.%, line 2 of 3 (+)", "value": 0, "unit": "number"}, {"measurement": "Number of examinees who exhibited ±, +, or ++ reactivity 2nd", "setting": "[2]; 1 wt.%, line 3 of 3 (++)", "value": 0, "unit": "number"}, {"measurement": "Number of examinees who exhibited ±, +, or ++ reactivity 3rd", "setting": "[2]; 1 wt.%, line 1 of 3 (±)", "value": 0, "unit": "number"}, {"measurement": "Number of examinees who exhibited ±, +, or ++ reactivity 3rd", "setting": "[2]; 1 wt.%, line 2 of 3 (+)", "value": 0, "unit": "number"}, {"measurement": "Number of examinees who exhibited ±, +, or ++ reactivity 3rd", "setting": "[2]; 1 wt.%, line 3 of 3 (++)", "value": 0, "unit": "number"}, {"measurement": "Number of examinees who exhibited ±, +, or ++ reactivity 4th", "setting": "[2]; 1 wt.%, line 1 of 3 (±)", "value": 0, "unit": "number"}, {"measurement": "Number of examinees who exhibited ±, +, or ++ reactivity 4th", "setting": "[2]; 1 wt.%, line 2 of 3 (+)", "value": 0, "unit": "number"}, {"measurement": "Number of examinees who exhibited ±, +, or ++ reactivity 4th", "setting": "[2]; 1 wt.%, line 3 of 3 (++)", "value": 0, "unit": "number"}]}
